Test: solvent given as SMILES

CCOCC
Conditions | solvation free energy, 298 K [kcal/mol]
in C1CCOC1 | -3.51
in C=CCCCCCCCCCCCCCC | -2.74
in CC(=O)N(C)C | -2.81
in CC(C)=O | -3.25
in CCCCCCCC | -3.05
in CCCCCCCCCCCCCCCC | -2.79
in CCCCCCCCCCO | -2.93
in CCCCCCCCO | -2.99
in CCCCCO | -3.12
in CCCCCl | -3.4
in CCCCN(C=O)CCCC | -2.88
in CCCCO | -3.1
in CCCCOCCCC | -3.23
in CCN1CCCC1=O | -2.77
in CCN(CC)C(C)=O | -2.95
in CCNC(C)=O | -2.82
in CCNC=O | -2.78
in CCO | -3.26
in CCOC(C)(C)C | -3.23
in CN1CCCC1=O | -2.77
in CN1CCCCC1=O | -2.77
in CN(C)C=O | -2.81
in CNC(C)=O | -2.77
in CNC=O | -2.66
in CO | -3.26
in CS(C)=O | -2.2
in Cc1cccc(C)c1 | -3.29
in ClC(Cl)(Cl)Cl | -3.52
in ClCCCl | -3.44
in ClCCl | -3.92
in NC=O | -1.93
in O | -1.74
in [2H]O[2H] | -1.96

C[N+](=O)[O-]
Conditions | solvation free energy, 298 K [kcal/mol]
in Brc1ccccc1 | -4.19
in C1CCCCC1 | -2.81
in C1CCOC1 | -5.04
in C1COCCO1 | -5.08
in CC1COC(=O)O1 | -5.38
in CC#N | -5.63
in CC(=O)N(C)C | -5.52
in CC(=O)O | -4.86
in CC(=O)c1ccccc1 | -4.89
in CC(C)(C)O | -3.79
in CC(C)=O | -5.32
in CC(C)CC(C)(C)C | -2.74
in CC(C)CCCC(C)CCCC(C)CCCCC(C)CCCC(C)CCCC(C)C | -2.56
in CC(C)CCO | -3.74
in CC(C)O | -3.92
in CC(C)OC(C)C | -3.87
in CC(Cl)Cl | -4.84
in CCBr | -4.49
in CCC(C)=O | -5.11
in CCCC#N | -5.07
in CCCCC | -2.7
in CCCCCC | -2.8
in CCCCCCC | -2.62
in CCCCCCCC | -2.62
in CCCCCCCCCC | -2.69
in CCCCCCCCCCCCCCCC | -2.52
in CCCCCCCCO | -3.49
in CCCCCl | -4.07
in CCCCO | -3.88
in CCCCOCCCC | -3.57
in CCCO | -3.94
in CCN(CC)CC | -3.55
in CCO | -4.26
in CCOC(C)=O | -4.96
in CCOCC | -4.21
in CCOCCOCCOCC | -4.91
in CCOc1ccccc1 | -4.39
in CN1CCCC1=O | -5.53
in CN(C)C=O | -5.58
in CN(C)P(=O)(N(C)C)N(C)C | -5.68
in CNC=O | -5.14
in CO | -4.66
in COC(C)=O | -5.13
in COCCO | -5
in COc1ccccc1 | -4.65
in CS(C)=O | -5.63
in Cc1ccc(C)cc1 | -4.13
in Cc1cccc(C)n1 | -4.67
in Cc1cccc(O)c1 | -4.68
in Cc1ccccc1 | -4.27
in Cc1ccccn1 | -4.88
in ClC(Cl)(Cl)Cl | -3.49
in ClC(Cl)Cl | -4.64
in ClCCCl | -4.9
in ClCCl | -4.98
in Clc1ccccc1 | -4.24
in FC(F)(F)C(F)(F)C(F)(F)C(F)(F)C(F)(F)C(F)(F)F | -2.11
in Fc1c(F)c(F)c(F)c(F)c1F | -4.22
in Fc1ccccc1 | -4.53
in ICI | -3.76
in Ic1ccccc1 | -4.04
in NC=O | -4.73
in Nc1ccccc1 | -5.08
in O | -4.03
in O=C1CCCCC1 | -5.07
in O=C1CCCO1 | -5.44
in O=CN1CCOCC1 | -5.28
in OCCO | -4.07
in OCCOCCOCCO | -4.01
in OCc1ccccc1 | -4.5
in S=C=S | -3.25
in [2H]O[2H] | -4.01
in c1ccc2ncccc2c1 | -4.72
in c1ccc(COCc2ccccc2)cc1 | -4.41
in c1ccccc1 | -4.5
in c1ccncc1 | -5.08

CCSSCC
Conditions | solvation free energy, 298 K [kcal/mol]
in O | -1.54

Oc1ccccc1I
Conditions | solvation free energy, 298 K [kcal/mol]
in O | -6.21

O=C(CC(=O)C(F)(F)F)c1cccs1
Conditions | solvation free energy, 298 K [kcal/mol]
in O | -6.15

Cc1ccc(C=O)cc1
Conditions | solvation free energy, 298 K [kcal/mol]
in O | -4.27

CC=C(C)C=CC=C(C)C
Conditions | solvation free energy, 298 K [kcal/mol]
in O | -0.55

Oc1ccc(Cl)cc1
Conditions | solvation free energy, 298 K [kcal/mol]
in CC(C)CC(C)(C)C | -6.6
in CCCCCC | -6.91
in CCCCCCC | -6.89
in CCCCCCCC | -6.88
in CCCCCCCCCC | -6.89
in Cc1ccc(C)cc1 | -8.29
in Cc1cccc(C)c1 | -8.39
in Cc1ccccc1C | -8.48
in O | -7.04

CC(C)=O
Conditions | solvation free energy, 298 K [kcal/mol]
in Brc1cccc2ccccc12 | -3.32
in C1CCOC1 | -3.89
in C1COCCO1 | -3.87
in CC#N | -4.32
in CC(=O)N(C)C | -3.95
in CC(=O)OCc1ccccc1 | -3.69
in CC(C)CC(C)(C)C | -2.44
in CC(C)CCCC(C)CCCC(C)CCCCC(C)CCCC(C)CCCC(C)C | -2.37
in CC(C)O | -3.36
in CC=O | -4.07
in CCC(C)=O | -3.98
in CCCCCC | -2.68
in CCCCCCC | -2.57
in CCCCCCCC | -2.53
in CCCCCCCCC=CCCCCCCCC(=O)OCC(COC(=O)CCCCCCCC=CCCCCCCCC)OC(=O)CCCCCCCC=CCCCCCCCC | -3.07
in CCCCCCCCCC | -2.46
in CCCCCCCCCCCCCCCC | -2.3
in CCCCCCCCO | -3.14
in CCCCCO | -3.4
in CCCCCl | -3.62
in CCCCN(C=O)CCCC | -3.55
in CCCCO | -3.51
in CCCCOCCCC | -3.04
in CCN1CCCC1=O | -3.77
in CCN(CC)C(C)=O | -3.82
in CCNC(C)=O | -3.56
in CCNC=O | -3.72
in CCO | -3.78
in CCOC(=O)c1ccccc1C(=O)OCC | -3.53
in CCOC(C)=O | -3.9
in CCOCC | -3.51
in CCOP(=O)(OCC)OCC | -3.64
in CI | -3.91
in CN1CCCC1=O | -3.94
in CN1CCCCC1=O | -3.82
in CN1CCN(C)C1=O | -3.61
in CN(C)C=O | -4.02
in CNC(C)=O | -3.67
in CNC=O | -3.82
in CO | -4.05
in COC(C)=O | -4.02
in COP(=O)(OC)OC | -3.97
in CS(C)=O | -3.67
in Cc1ccc(C)cc1 | -3.39
in Cc1cccc(C)c1 | -3.4
in Cc1ccccc1C | -3.36
in ClC(Cl)(Cl)Cl | -3.25
in ClC(Cl)Cl | -4.67
in ClCCCl | -4.27
in ClCCl | -4.62
in Clc1ccccc1 | -3.63
in N#CCCOCCC#N | -3.86
in NC=O | -3.77
in O | -3.84
in O=C1CCCCC1 | -3.8
in O=CN1CCOCC1 | -3.66
in OCCOCCO | -3.32
in S=C=S | -3.39
in [2H]O[2H] | -3.82
in c1ccc2ncccc2c1 | -3.62
in c1ccccc1 | -3.79

Clc1cccnc1
Conditions | solvation free energy, 298 K [kcal/mol]
in O | -4.01

CC(C)C(C)C
Conditions | solvation free energy, 298 K [kcal/mol]
in C=CCCCCCCCCCCCCCC | -3.31
in CC#N | -2.4
in CCCCCCCCCCCCCCCC | -3.41
in CCCCCCCCCCCCO | -3.07
in CCCCCO | -3.15
in CCCCO | -3.07
in O | 2.36

N#Cc1ccccc1
Conditions | solvation free energy, 298 K [kcal/mol]
in CCCCCCC | -5.33
in CCCCCCCCO | -6
in O | -4.11
in [2H]O[2H] | -3.82

ClC1=C(Cl)C2(Cl)C3C4C=CC(C4)C3C1(Cl)C2(Cl)Cl (centres undefined)
Conditions | solvation free energy, 298 K [kcal/mol]
in CCCCCCCCO | -11.3
in O | -3.75

C#CCC
Conditions | solvation free energy, 298 K [kcal/mol]
in C1COCCO1 | -3
in CC(C)=O | -2.99
in CC(C)CC(C)(C)C | -2.36
in CN(C)C=O | -2.92
in COC(C)=O | -3.03
in O | -0.16

Source: the CombiSolv-Exp solvation set (Vermeire and Green 2021)
